Measurements published in patent publication US7179921B2, “Indoline and tetrahydro-quinolines as prodrugs for tumour treatment” (School of Pharmacy, University of London, priority 2001, dated 2007).
Marks after values point to notes of the source that are not given here.

System: Chinese Hamster Ovary (CHO) cell
Assay: Cell culture based cytotoxicity measurement (MTT) with and without rat liver microsomal activation
Conditions: for IC50: Cricetulus griseus, CHO, cells incubated 24 hours, MTT, mean±sd, three experiments
Method: Test compound activation by CYP enzymes was carried out using NADPH supplemented rat liver microsomes. Incubation mixtures comprised microsomal protein (1 mg/ml), reduced-nicotinamide adenine dinucleotide phosphate (NADPH,10 mM) and phosphate buffer (pH7.4, 100 mM). Test compound (0.01–100 μM final concentration) in DMSO (20 μl ) was added to the microsomal incubation mixtures (0.5 ml) and incubated for 60 min at 37C. Control incubates contained test compound and microsomal incubation mixture terminated at 0 time. All incubations were terminated by addition of an equal volume of ice-cold acetonitrile and microfuged for 3 min. Aliquots of the supernatant were added to cells in culture.
Chinese Hamster Ovary (CHO) cell were grown in MEM supplemented with 10% dialysed FBS and G418 (400 μg/ml). All cells were seeded at an initial density of 1000 cells/well in 96-well-plates, incubation at 37° C. for 24 hours. Aliquots (0.1 ml) of the test compound/microsomal/acetonitrile supernatnant was then added to the CHO cells. Cells were then incubated for 24 hours at 37° C., 5% CO2. After this time period MTT (50 μl; 2 mg/ml stock solution) was added to each well and cells were incubated for a further 4 hours. During this time period MTT, a hydrogen acceptor tetrazolium salt, is reduced to formazan dye by mitochondrial dehydrogenase of viable cells. The media was aspirated from cells and DMSO (100 μl/well) added to solubilise the is coloured formazan dye. Absorbance of the formazan dye in the 96-well-plates was then determined at 550 nm. The effect of microsomal activation by the test compound on the arrest of CHO cell growth could be determined by comparing the IC50 (concentration that inhibited cell growth by 50%) with and without microsomal incubation.
Effect of compound 3.5 and its metabolism (activation) product on the survival of Chinese hamster ovary cells in culture. Cells were incubated for 24 hours with supernatants from reaction mixtures of compound 3.5 with NADPH fortified rat liver microsomes. […] Values are expressed as the mean±sd for three experiments. […]

SMILES: COc1ccc2[nH]c(C(=O)N3CC(CCl)c4ccccc43)cc2c1 (stereo not drawn) [compound 3.5, 3-(Chloromethyl)-1--[(5-methoxyindol-2-yl)carbonyl]indoline]
- AF = activity factor, ratio of IC50 cytotoxicity values obtained for ± compound activation (CHO cells, IC50 −activation / IC50 +activation): 42.4*
- IC50 (control incubate terminated at 0 time (no microsomal activation)): 5.51 ± 0.23 µM
- IC50 (supernatant after 60 min incubation with NADPH supplemented rat liver microsomes): 0.13 ± 0.03 µM
